{
  "source": "paper PMC3856088",
  "about": "“Small Molecule Binding, Docking, and Characterization of the Interaction between Pth1 and Peptidyl-tRNA” (International Journal of Molecular Sciences, 2013)",
  "target": "T1, E. coli Pth1 (Escherichia coli, UniProt P0A7D1)",
  "T1 construct": "gene pth; wild type, 15N-labelled, expressed in E. coli W3110, purified on His-Trap FF (tag not described), 21 kDa monomer",
  "T1 sequence (P0A7D1 2-194)": "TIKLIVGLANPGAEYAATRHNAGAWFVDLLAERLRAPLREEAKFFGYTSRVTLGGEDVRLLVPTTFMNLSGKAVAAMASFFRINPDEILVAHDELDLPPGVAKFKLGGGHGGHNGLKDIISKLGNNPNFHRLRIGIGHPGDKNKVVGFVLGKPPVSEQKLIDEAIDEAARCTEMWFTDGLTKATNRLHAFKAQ",
  "experiment": "1H-15N HSQC NMR titration, chemical shift perturbation mapping",
  "details": "20 mM Bis-Tris, 100 mM NaCl, 2 mM TCEP, pH 6.6, 25 °C; 200 uM 15N Pth1; ligand:protein up to 64:1; site opposite the substrate binding face",
  "data": [
    {"smiles": "c1cc2c(cc1CN1CCNCC1)OCO2", "note": "[piperonylpiperazine]", "values": [
      {"measurement": "1H-15N HSQC NMR titration, chemical shift perturbation mapping", "value": "The binding of piperonylpiperazine to wild type E. coli Pth1 was studied by NMR spectroscopy"}
    ]}
  ]
}
